Values of other authors as cited in US10273264B2, “Cortistatin analogues and syntheses and uses thereof” (President and Fellows of Harvard College, priority 2015, dated 2019).

Legend:
CDK19 = CDK19 (Homo sapiens, UniProt Q9BWU1); conditions: reported, Cee et al. and US 20120071477
[1] = tested on: beta-catenin activated transcription; conditions: reporter gene assay; as described in PCT/US2014/72365
[2] = tested on: Wnt/beta-catenin target genes in AML cells; conditions: as described in PCT/US2014/72365
STAT1 phosphorylation = conditions: as described in PCT/US2014/72365
AML cell lines = conditions: in vitro; as described in PCT/US2014/72365
AML = conditions: in vivo; as described in PCT/US2014/72365
[3] = tested on: cell lines derived from patients with MPNs; conditions: as described in PCT/US2014/72365
PMF = conditions: as described in PCT/US2014/72365

CDK19, sequence (Q9BWU1 whole entry): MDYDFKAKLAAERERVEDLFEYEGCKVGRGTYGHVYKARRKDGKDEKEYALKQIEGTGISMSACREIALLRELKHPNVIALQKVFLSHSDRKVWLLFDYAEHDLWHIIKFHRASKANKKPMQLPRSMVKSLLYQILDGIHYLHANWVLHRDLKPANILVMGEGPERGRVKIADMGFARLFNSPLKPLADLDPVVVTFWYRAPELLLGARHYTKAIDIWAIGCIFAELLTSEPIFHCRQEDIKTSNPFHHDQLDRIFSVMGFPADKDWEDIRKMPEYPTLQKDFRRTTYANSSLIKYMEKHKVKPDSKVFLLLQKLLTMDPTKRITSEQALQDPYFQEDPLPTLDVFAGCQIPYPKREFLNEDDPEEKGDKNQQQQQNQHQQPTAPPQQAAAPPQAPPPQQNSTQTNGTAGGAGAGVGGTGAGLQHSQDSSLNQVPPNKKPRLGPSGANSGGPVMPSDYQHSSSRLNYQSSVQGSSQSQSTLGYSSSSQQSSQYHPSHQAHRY

For cortistatin A, the “binding to CDK19” value (CDK19) is given as “bind”, the “inhibition of beta-catenin activated transcription” value [1] is given as “inhibits” and the “inhibition of expression of putative Wnt/beta-catenin target genes” value [2] is given as “inhibits”. The “inhibition of interferon-gamma-stimulated STAT1 phosphorylation” value (STAT1 phosphorylation) was “inhibits”, the “inhibition of proliferation of AML cell lines” value (AML cell lines) was “inhibit” and the “inhibition of AML progression” value (AML) was “inhibits”. The “inhibition of proliferation of MPN patient-derived cell lines” value [3] was “inhibits” and the “efficacy in an in vivo model of PMF” value (PMF) was “efficacious”.
